The values that follow come from patent US10179770B2, “Quinolines derivatives as novel anticancer agents” (GENOSCIENCE PHARMA, priority 2013, dated 2019).

One test has as its system Colo205. Briefly: EC50 determination in cancer cell lines. Type of test: cell-based. To be noted: Homo sapiens, COLO 205, 72 h, * n>2. The gist of the method:
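Treatment lasts 72 h at a fixed vehicle content of DMSO or H2O. The readout is MTS for adherent cells and SRB for suspension cells. Each EC50 is the concentration halving absorbance relative to vehicle.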

Another test concerns HL-60. Briefly: NCI-60 screen (SRB). To be noted: HL-60 (Leukemia). Type of test: cell-based. The gist of the method: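 A 48 h, five-concentration exposure in 5% FBS medium with SRB protein staining. Out-of-range values are reported as greater or less than the tested limits.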
The test system of the next test is HT29 cells. In words: Combination study with standard chemotherapy agents, Combination Index (Chou and Talalay). To be noted: preliminary results. Type of test: cell-based, human. On the procedure:
Anticancer drugs were tested around their EC50 in […] cell line, The general assay procedure is the same as described in example 53 for compound XIX-3. Loewe additivity model: The experimental data are analyzed by using CalcuSyn (Biosoft, Stapleford, UK), a computer program based on the method of Chou and Talalay. Briefly, the dose-effect curves for each drug or drug combination were converted to median-effect plots with CalcuSyn. Then, a combination index (CI) value for each experimental combination was calculated on the basis of the following equation: [formula] Where for n=2 (combination of 2 compounds): D1 and D2 are the doses of drug 1 and drug 2 that have x effect when each drug is used alone d1 and d2 are the doses of drug 1 and drug 2 that have the same x effect when they are used in combination. [table] [table]

With `Cc1ccc(-c2cc(N3CCC(NC(C)(C)C)CC3)c3ccccc3n2)cc1.Cl.Cl` [XIII-8, 2-(4-methyl-phenyl)-4-(4-N-tert-butylamino-piperidin-1-yl)quinoline dihydrochloride], the EC50 in the test with Colo205 was 8 µM.
`CCN(CC)C1CCN(C(C)c2cc(-c3ccccc3)nc3ccccc23)CC1.Cl.Cl` (centres unmarked) [XIX-3, 2-phenyl-4-{1-[4-(N,N-diethylamino)piperidin-1-yl]-eth-1-yl}quinoline dihydrochloride] had a concentration for total growth inhibition (TGI) in the test on HL-60 of 33 µM. The “Growth percent at 10 μM” value in the test with HL-60 (10 μM) is listed as “++ (cell growth 40 > % < 60)”. For the same molecule, it took 17 µM to inhibit growth in the test on HL-60 (Homo sapiens) by half (GI50). Besides, the CC50 with HL-60 (Homo sapiens, read-out: LC50 (the source's name)) is 66 µM. Further, the “Combination effect with standard chemotherapy agents” value in the test with HT29 cells (HT29 cells) is listed as “Synergy Effect”. Moreover, the “Combination Index (CI)” value in the test with HT29 cells (XIX-3 at 18 μM in combination with well described anticancer drugs, HT-29) was less than 1.
In the test on Colo205, `CCN(CC)C1CCN(C(C)c2cc(-c3ccc4ccccc4c3)nc3ccccc23)CC1.Cl.Cl` (centres unmarked) [XXIV-3, 2-(2-naphtyl)-4-{1-[4-(N,N-diethylamino)-piperidin-1-yl]-eth-1-yl}quinoline dihydrochloride] registered a concentration for a half-maximal effect (EC50) of 5 µM.
